For data set [1], the system named is SARS-CoV-2. Kind of data set: Antiviral activity against SARS-CoV-2 infected in Vero E6 cells preincubated with cells for 1 day in absence of HCl followed by viral infection and measured after 3 days by qRT-PCR analysis. Type of data set: functional, organism-based. The note with it: Severe acute respiratory syndrome coronavirus 2, Vero C1008. In general terms: Real-time PCR tracks product formation cycle by cycle.

A short description of data set [2]: Mutagenicity in Salmonella typhimurium TA1537 assessed as inhibition of bacterial growth at 0.152 to 333 ug incubated in presence of S9 fraction by micro-Ames test. The conditions noted are these: dose 0.152-333 µg. In kind it is toxicity, subcellular, Salmonella enterica subsp. enterica serovar Typhimurium. A general note: The Ames test uses bacterial strains that need an amino acid and regain growth without it when mutated back.

The nature of data set [3]: Mutagenicity in Salmonella typhimurium TA100 assessed as inhibition of bacterial growth at 0.152 to 333 ug incubated in absence of S9 fraction by micro-Ames test. The conditions noted are these: in vivo; dose 0.152-333 µg. Type of data set: toxicity, Salmonella enterica subsp. enterica serovar Typhimurium.
Data set [4] can be described thus: Cytotoxicity against African green monkey Vero E6 cells incubated for 3 days by WST-8 assay. Type of data set: toxicity, cell-based, Vero C1008. The note with it: chlorocebus sabaeus, time 3 day. On the technique in general: Formazan colour is commonly taken as a measure of viable cells.
The nature of data set [5]: Mutagenicity in Escherichia coli WP2uvrA assessed as inhibition of bacterial growth at 0.152 to 333 ug incubated in presence of S9 fraction by micro-Ames test. Type of data set: toxicity, subcellular. The conditions noted are these: dose 0.152-333 µg.
Data set [6] can be described thus: Mutagenicity in Salmonella typhimurium TA1535 assessed as inhibition of bacterial growth at 0.152 to 333 ug incubated in presence of S9 fraction by micro-Ames test. The note with it: dose 0.152-333 µg. Type of data set: toxicity, subcellular, Salmonella enterica subsp. enterica serovar Typhimurium.
A further data set relates to Vero C1008. The experiment in a line: Cytotoxicity against African green monkey Vero E6 cells infected with SARS-CoV-2 WK-521 upto 100 uM incubated for 3 days by immunostaining analysis. The note with it: chlorocebus sabaeus, vero c1008, 72 h, time 3 day. Type of data set: toxicity, cell-based.
The next data set has as its system MOLT-4. The experiment in a line: Cytotoxicity against human MOLT-4 cells assessed as reduction in cell viability at 10 uM incubated for 12 days by CCK-8 assay. Type of data set: toxicity, cell-based. The note with it: molt-4, 288 h, time 12 day.
The nature of data set [7]: Mutagenicity in Salmonella typhimurium TA98 assessed as inhibition of bacterial growth at 0.152 to 333 ug incubated in presence of S9 fraction by micro-Ames test. Type of data set: toxicity, subcellular, Salmonella enterica subsp. enterica serovar Typhimurium. The conditions noted are these: dose 0.152-333 µg.
The subject of data set [8] is SARS-CoV-2. Kind of data set: Antiviral activity against SARS-CoV-2 infected in Vero E6 cells preincubated with cells for 1 day in presence of HCl treated compound followed by viral infection and measured after 3 days by qRT-PCR analysis. Type of data set: functional, organism-based. The note with it: Severe acute respiratory syndrome coronavirus 2, Vero C1008.
Data set [9] is described as follows: Mutagenicity in Salmonella typhimurium TA98 assessed as inhibition of bacterial growth at 0.152 to 333 ug incubated in absence of S9 fraction by micro-Ames test. Type of data set: toxicity, Salmonella enterica subsp. enterica serovar Typhimurium. The conditions noted are these: in vivo; dose 0.152-333 µg.
Data set [10] can be described thus: Mutagenicity in Salmonella typhimurium TA100 assessed as inhibition of bacterial growth at 0.152 to 333 ug incubated in presence of S9 fraction by micro-Ames test. Type of data set: toxicity, subcellular, Salmonella enterica subsp. enterica serovar Typhimurium. The note with it: dose 0.152-333 µg.
Another data set deals with MT2. The experiment in a line: Cytotoxicity against human MT2 cells assessed as reduction in cell viability at 10 uM incubated for 12 days by CCK-8 assay. In kind it is toxicity, cell-based. The conditions noted are these: mt2, 288 h, time 12 day.
For data set [11], the system named is SARS-CoV-2. The experiment in a line: Antiviral activity against SARS-CoV-2 infected in Vero E6 cells preincubated with cells for 1 day followed by viral infection and measured after 3 days by qRT-PCR analysis. Type of data set: functional, organism-based. The note with it: Severe acute respiratory syndrome coronavirus 2, Vero C1008.
The nature of data set [12]: Mutagenicity in Salmonella typhimurium TA1537 assessed as inhibition of bacterial growth at 0.152 to 333 ug incubated in absence of S9 fraction by micro-Ames test. Type of data set: toxicity, Salmonella enterica subsp. enterica serovar Typhimurium. The note with it: in vivo; dose 0.152-333 µg.
Data set [13] can be described thus: Mutagenicity in Salmonella typhimurium TA1535 assessed as inhibition of bacterial growth at 0.152 to 333 ug incubated in absence of S9 fraction by micro-Ames test. In kind it is toxicity, Salmonella enterica subsp. enterica serovar Typhimurium. The note with it: in vivo; dose 0.152-333 µg.
In data set [14] the test system is SARS-CoV-2. The experiment in a line: Antiviral activity against SARS-CoV-2 hCoV-19/Japan/TKYS02037/2022 (omicron BA.2) infected in Vero E6 cells preincubated with cells for 1 day followed by viral infection and measured after 3 days by qRT-PCR analysis. In kind it is functional, organism-based. The conditions noted are these: Severe acute respiratory syndrome coronavirus 2, hCoV-19/Japan/TKYS02037/2022 (omicron BA.2), Vero C1008.

Data set [15] in a line: Mutagenicity in Escherichia coli WP2uvrA assessed as inhibition of bacterial growth at 0.152 to 333 ug incubated in absence of S9 fraction by micro-Ames test. Type of data set: toxicity. The conditions noted are these: in vivo; dose 0.152-333 µg.
The test system of the next data set is PBMC. Kind of data set: Cytotoxicity against human PBMC cells assessed as reduction in cell viability at 10 uM incubated for 12 days by CCK-8 assay. Type of data set: toxicity, cell-based. The conditions noted are these: 288 h, time 12 day.

Bounds are passed on as bounds.

The EC50 is the midpoint of the concentration-response curve. What is called CC50 is the concentration at which the toxic effect on the cells reaches its halfway point. Regarding `CC(C)(C)[C@H](NC(=O)C(F)(F)F)C(=O)N1C[C@H]2[C@@H]([C@H]1C(=O)N[C@H](C#N)C[C@@H]1CCNC1=O)C2(C)C`, the EC50 in the data set on SARS-CoV-2 [1] was 1400 nM; with SARS-CoV-2 [8] it was 2500 nM; with SARS-CoV-2 [11], 1600 nM; in the data set on SARS-CoV-2 [14], 1400 nM. The Activity entry (in [2]; in data set [3]; in data set [5]; in [6]; in the data set with Vero C1008; with MOLT-4) was “Non-Toxic” each time. Moreover, the Activity result (in [7]; in data set [9]; in data set [10]; with MT2; in data set [12]; in data set [13]) was “Non-Toxic” throughout. The Activity entry (in [15]; in the data set with PBMC) was “Non-Toxic” throughout. For the same compound, the CC50 at 72 h in data set [4] was greater than 100000 nM.

These data come from ChEMBL document CHEMBL5365531, “Structure-Activity Relationship Studies of SARS-CoV-2 Main Protease Inhibitors Containing 4-Fluorobenzothiazole-2-carbonyl Moieties” (J Med Chem, 2023).
